Test results: paper PMC6688371, “Effect of the inhaled PDE4 inhibitor CHF6001 on biomarkers of inflammation in COPD” (Respiratory Research, 2019)

Columns and labels:
[1] = Stability of CHF6001 in human sputum samples (bioanalytical validation); format: in vitro ADME
Protocol: Effect of CHF6001 on inflammatory biomarkers – Additional file 1
Approximately 80 to 100 cells were to be counted per square , with the number of live leukocytes, dead leukocytes and squamous cells counted.
To determine differential cell counts, the sputum cell suspension was adjusted with Dulbecco's Phosphate -Buffered Saline to give 0.5x10^6 cells/mL. A total of 75 µL was used to prepare a cytoslide, which was then centrifuged at 450 rpm for 6 min and allowed to air dry for a minimum of 30 min before being fixed with methanol for 10 min. Four slides were prepared for each sample.
Only one of the sputum samples induced at 2 h post-dose on Days 20, 26 or 32 was used to evaluate CHF6001 concentration, with the evaluation performed only if a minimum of 300 mg of residual sputum remained. Approximately 30 mg of sputum plug was transferred to a polypropylene cryotube, and was shipped in an upright position at –80C to a central laboratory for analysis. The concentration of CHF6001 was evaluated using a LC-MS/MS method following solid phase extraction. Validation procedures were the same as those listed above for biomarkers. […]
over the calibration range of 30 to 20,000 ng/mL. The precision and accuracy of the method […]
30 ng/mL and within 15% at all other concentrations. No significant matrix effects were […]
temperature (nominally +22C), after storage for 93 days in a freezer set at –80C and after four freeze-thaw cycles at nominally –80C / +22C. The method was considered to be suitable for measuring concentrations of CHF6001 in human sputum samples from […]
Analysis of biomarkers and CHF6001 concentration in blood
The levels of inflammatory biomarkers were evaluated from blood collected at 2 h post-dose

[2] = tested on: patients with COPD; assay: Forced oscillometry; format: in vivo, human; conditions: for Difference in inspiratory resistance (5-19Hz), adjusted mean difference vs placebo (95% CI) / Expiratory reactance (5 Hz), adjusted mean difference vs placebo (95% CI) / Expiratory resistance (5 Hz), adjusted mean difference vs placebo (95% CI) / Expiratory resistance (19 Hz), adjusted mean difference vs placebo (95% CI) / Inspiratory reactance (5 Hz), adjusted mean difference vs placebo (95% CI) / Inspiratory resistance (5 Hz), adjusted mean difference vs placebo (95% CI) / Inspiratory resistance (19 Hz), adjusted mean difference vs placebo (95% CI) / Percentage flow limited breaths, adjusted mean difference vs placebo (95% CI) / Tidal expiratory flow limitation, adjusted mean difference vs placebo (95% CI) / Total reactance (5 Hz), adjusted mean difference vs placebo (95% CI) / Total resistance (5 Hz), adjusted mean difference vs placebo (95% CI) / Total resistance (19 Hz), adjusted mean difference vs placebo (95% CI): change from baseline to Day 32
Protocol: Induced sputum was collected pre-dose on Day 1 of each treatment period (for the first treatment period, the sample could be collected up to 10 days prior to Day 1), and 2 h post-dose on Days 20, 26 and 32 (see the Additional file 1 for further detail on sputum and blood analysis methods). Blood samples were taken pre-dose on Day 1, and pre-dose and at 30 min, and 1, 1.5, 2, 3, 4, 6, 8 and 12 h post-dose on Day 32. Other pre-dose assessments on Days 1 and 32 were spirometry (forced expiratory volume in 1 s [FEV1] and forced vital capacity [FVC]), forced oscillometry, and COPD Assessment Test (CAT), with Baseline Dyspnea Index recorded on Day 1 and Transition Dyspnea Index (TDI) on Day 32. Central and peripheral airways mechanics were assessed using forced oscillometry, with the following values determined: inspiratory and expiratory resistance (at 5 and 19 Hz), inspiratory and expiratory reactance, tidal expiratory flow limitation and the percentage of flow limited breaths.
The mean changes from baseline to Day 32 for lung function, CAT and TDI were analysed using similar methodology to sputum biomarkers, but were not log-transformed. […] The sputum concentration of CHF6001 was also evaluated at 2 h post-dose, using the mean of all values measured on Days 20, 26 and 32. Pharmacokinetic variables were summarised using geometric means and coefficients of variation, except for Tmax,ss, which is presented as median (range).

CS(=O)(=O)Nc1ccc(C(=O)O[C@@H](Cc2c(Cl)c[n+]([O-])cc2Cl)c2ccc(OC(F)F)c(OCC3CC3)c2)cc1OCC1CC1 [CHF6001]
Storage time found stable in sputum ([1]; freezer set at –80C): 93 days | Freeze-thaw cycles found stable in sputum ([1]; nominally –80C / +22C): four | Time found stable in sputum ([1]; sample processing temperature (nominally +22C)): up to 24 h | Difference in inspiratory resistance (5-19Hz), adjusted mean difference vs placebo (95% CI) ([2]; 800 µg BID): –0.09 (–0.32 to 0.13) cmH2O/(L/s) | Expiratory reactance (5 Hz), adjusted mean difference vs placebo (95% CI) ([2]; 800 µg BID): 0.14 (–0.49 to 0.77) cmH2O/(L/s) | Expiratory resistance (5 Hz), adjusted mean difference vs placebo (95% CI) ([2]; 800 µg BID): –0.15 (–0.45 to 0.15) cmH2O/(L/s) | Expiratory resistance (19 Hz), adjusted mean difference vs placebo (95% CI) ([2]; 800 µg BID): –0.04 (–0.23 to 0.15) cmH2O/(L/s) | Inspiratory reactance (5 Hz), adjusted mean difference vs placebo (95% CI) ([2]; 800 µg BID): 0.18 (0.00 to 0.36) cmH2O/(L/s) | Inspiratory resistance (5 Hz), adjusted mean difference vs placebo (95% CI) ([2]; 800 µg BID): –0.07 (–0.33 to 0.20) cmH2O/(L/s) | Inspiratory resistance (19 Hz), adjusted mean difference vs placebo (95% CI) ([2]; 800 µg BID): 0.06 (–0.12 to 0.24) cmH2O/(L/s) | Percentage flow limited breaths, adjusted mean difference vs placebo (95% CI) ([2]; 800 µg BID): 0.95 (–8.51 to 10.41) | Tidal expiratory flow limitation, adjusted mean difference vs placebo (95% CI) ([2]; 800 µg BID): 0.03 (–0.56 to 0.63) | Total reactance (5 Hz), adjusted mean difference vs placebo (95% CI) ([2]; 800 µg BID): 0.13 (–0.30 to 0.56) cmH2O/(L/s) | Total resistance (5 Hz), adjusted mean difference vs placebo (95% CI) ([2]; 800 µg BID): –0.13 (–0.39 to 0.13) cmH2O/(L/s) | Total resistance (19 Hz), adjusted mean difference vs placebo (95% CI) ([2]; 800 µg BID): –0.00 (–0.18 to 0.17) cmH2O/(L/s) | Difference in inspiratory resistance (5-19Hz), adjusted mean difference vs placebo (95% CI) ([2]; 1600 µg BID): 0.05 (–0.18 to 0.27) cmH2O/(L/s) | Expiratory reactance (5 Hz), adjusted mean difference vs placebo (95% CI) ([2]; 1600 µg BID): 0.082 (–0.55 to 0.72) cmH2O/(L/s) | Expiratory resistance (5 Hz), adjusted mean difference vs placebo (95% CI) ([2]; 1600 µg BID): 0.21 (–0.09 to 0.52) cmH2O/(L/s) | Expiratory resistance (19 Hz), adjusted mean difference vs placebo (95% CI) ([2]; 1600 µg BID): 0.14 (–0.05 to 0.33) cmH2O/(L/s) | Inspiratory reactance (5 Hz), adjusted mean difference vs placebo (95% CI) ([2]; 1600 µg BID): 0.14 (–0.04 to 0.32) cmH2O/(L/s) | Inspiratory resistance (5 Hz), adjusted mean difference vs placebo (95% CI) ([2]; 1600 µg BID): 0.23 (–0.03 to 0.50) cmH2O/(L/s) | Inspiratory resistance (19 Hz), adjusted mean difference vs placebo (95% CI) ([2]; 1600 µg BID): 0.17 (–0.01 to 0.35) cmH2O/(L/s) | Percentage flow limited breaths, adjusted mean difference vs placebo (95% CI) ([2]; 1600 µg BID): –2.06 (–11.66 to 7.53) | Tidal expiratory flow limitation, adjusted mean difference vs placebo (95% CI) ([2]; 1600 µg BID): 0.05 (–0.55 to 0.65) | Total reactance (5 Hz), adjusted mean difference vs placebo (95% CI) ([2]; 1600 µg BID): 0.03 (–0.41 to 0.47) cmH2O/(L/s) | Total resistance (5 Hz), adjusted mean difference vs placebo (95% CI) ([2]; 1600 µg BID): 0.22 (–0.04 to 0.49) cmH2O/(L/s) | Total resistance (19 Hz), adjusted mean difference vs placebo (95% CI) ([2]; 1600 µg BID): 0.15 (–0.03 to 0.32) cmH2O/(L/s) | Oscillometry parameters vs placebo ([2]; either dose (800 or 1600 μg BID)): no consistent treatment–placebo differences
